Laboratory results as given in PMC5366886, “Structure of the Cyanuric Acid Hydrolase TrzD Reveals Product Exit Channel” (Scientific Reports, 2017).

T1: TrzD (Enterobacter cloacae, UniProt P0A3V4)
T1 sequence (P0A3V4 1-370): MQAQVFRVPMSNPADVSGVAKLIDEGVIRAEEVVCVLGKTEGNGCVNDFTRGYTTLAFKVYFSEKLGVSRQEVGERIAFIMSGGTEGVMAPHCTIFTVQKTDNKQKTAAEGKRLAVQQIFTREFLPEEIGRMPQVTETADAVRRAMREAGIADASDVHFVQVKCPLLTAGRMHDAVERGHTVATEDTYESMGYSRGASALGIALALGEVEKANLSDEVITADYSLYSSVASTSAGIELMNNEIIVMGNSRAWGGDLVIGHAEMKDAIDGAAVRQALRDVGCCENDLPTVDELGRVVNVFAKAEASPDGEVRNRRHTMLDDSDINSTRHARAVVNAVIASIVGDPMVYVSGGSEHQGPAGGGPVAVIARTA

B1: TrzD, a cyanuric acid hydrolase from Acidovorax citrulli (enzyme, UniProt P0A3V4 1-370, looked up)
chain: T1 sequence (P0A3V4 1-370)
notes: TrzD, cyanuric acid hydrolase of Acidovorax citrulli; full-length trzD gene in pET28b(+); 370 amino acids, ~39.5 kDa; source: E. coli BL21 (DE3), purified (Ni-NTA, Superdex-200 gel filtration); not shown: His-tag, N-terminal, kept

Key:
TrzD = target: T1, TrzD; assay: co-crystallisation with substrate, X-ray […] A; co-product CO2 seen in density; type: biochemical; settings: 10 mM cyanuric acid in drop, BIS-TRIS pH 6.5, 20 °C; Mg2+ bound in domain 3; turned over, cyanuric acid itself not reported in the model
[1] = target: the molecule itself; assay: SEC + other: dynamic light scattering; purified TrzD in solution; conditions of this experiment not told

Row | Molecule | co-crystallisation with substrate, X-ray 2.19 A; co-product CO2 seen in density (TrzD) | stoichiometry N [1]
1 | O=c1[nH]c(=O)[nH]c(=O)[nH]1 [cyanuric acid, 1,3,5-triazinane-2,4,6-trione] | The protein was crystallized with its natural substrate cyanuric acid by hanging drop | –
2 | B1 | – | 4
